Laboratory results taken from ChEMBL document CHEMBL1759997, “Discovery of a piperazine urea based compound as a potent, selective, orally bioavailable melanocortin subtype-4 receptor partial agonist” (Bioorg Med Chem Lett, 2011).
Calls of active or inactive are those of the source. The rule behind the calls is not given here.

What was measured:
[1] = target: T1, Melanocyte-stimulating hormone receptor (Homo sapiens, UniProt Q01726); assay: Displacement of [125I]NDP-alpha-MSH from human MC1 receptor expressed in CHO cells; format: cell-based
Target sequence in this assay (Q01726 whole entry): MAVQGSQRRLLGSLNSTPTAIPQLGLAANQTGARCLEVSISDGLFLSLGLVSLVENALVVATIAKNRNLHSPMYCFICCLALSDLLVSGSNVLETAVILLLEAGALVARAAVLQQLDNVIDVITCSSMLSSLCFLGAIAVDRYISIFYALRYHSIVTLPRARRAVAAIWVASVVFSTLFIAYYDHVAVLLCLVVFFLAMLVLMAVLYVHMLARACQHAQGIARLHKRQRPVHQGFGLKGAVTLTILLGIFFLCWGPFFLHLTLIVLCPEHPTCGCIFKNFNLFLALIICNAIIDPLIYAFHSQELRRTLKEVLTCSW

Melanocortin receptor 3 [2] = target: T2, Melanocortin receptor 3 (Homo sapiens, UniProt P41968); assay: Displacement of [125I]NDP-alpha-MSH from human MC3 receptor expressed in CHO cells; format: cell-based
T2 sequence (P41968 whole entry): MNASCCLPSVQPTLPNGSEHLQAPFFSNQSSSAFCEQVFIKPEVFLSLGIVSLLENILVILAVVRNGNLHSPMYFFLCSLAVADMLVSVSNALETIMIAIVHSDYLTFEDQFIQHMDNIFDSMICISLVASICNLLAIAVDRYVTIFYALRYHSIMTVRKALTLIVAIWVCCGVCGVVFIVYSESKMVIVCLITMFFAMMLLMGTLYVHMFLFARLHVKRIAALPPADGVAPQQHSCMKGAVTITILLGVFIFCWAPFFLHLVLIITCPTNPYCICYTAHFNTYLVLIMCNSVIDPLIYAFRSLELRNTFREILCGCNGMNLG

Melanocortin receptor 4 [3] = target: T3, Melanocortin receptor 4 (Homo sapiens, UniProt P32245); assay: Displacement of [125I]NDP-alpha-MSH from human MC4 receptor expressed in CHO cells; format: cell-based
T3 sequence (P32245 whole entry): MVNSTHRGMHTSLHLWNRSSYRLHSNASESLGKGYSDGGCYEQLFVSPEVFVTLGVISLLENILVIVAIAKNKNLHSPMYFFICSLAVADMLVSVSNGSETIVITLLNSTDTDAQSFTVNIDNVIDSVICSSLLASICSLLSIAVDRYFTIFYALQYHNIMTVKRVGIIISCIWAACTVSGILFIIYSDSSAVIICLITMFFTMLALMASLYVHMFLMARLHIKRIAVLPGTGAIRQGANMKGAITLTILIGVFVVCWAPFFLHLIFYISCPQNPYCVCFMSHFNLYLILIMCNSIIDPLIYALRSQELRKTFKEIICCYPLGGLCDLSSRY

Melanocortin receptor 5 [4] = target: T4, Melanocortin receptor 5 (Homo sapiens, UniProt P33032); assay: Displacement of [125I]NDP-alpha-MSH from human MC5 receptor expressed in CHO cells; format: cell-based
T4 sequence (P33032 whole entry): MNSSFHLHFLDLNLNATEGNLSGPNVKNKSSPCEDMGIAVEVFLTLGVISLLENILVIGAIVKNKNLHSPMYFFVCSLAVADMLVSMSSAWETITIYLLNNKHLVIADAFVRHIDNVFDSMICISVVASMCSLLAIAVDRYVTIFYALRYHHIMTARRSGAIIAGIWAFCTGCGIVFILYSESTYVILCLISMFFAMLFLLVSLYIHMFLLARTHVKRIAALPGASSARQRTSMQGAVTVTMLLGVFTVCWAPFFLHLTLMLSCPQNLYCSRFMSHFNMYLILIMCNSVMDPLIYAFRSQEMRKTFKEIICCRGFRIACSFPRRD

[5] = target: T1, Melanocyte-stimulating hormone receptor; assay: Agonist activity at human MC1 receptor expressed in CHO cells assessed as cAMP accumulation; format: functional, cell-based
Target sequence in this assay (Q01726 whole entry): as the sequence (Q01726 whole entry) above

Melanocortin receptor 5 [6] = target: T4, Melanocortin receptor 5; assay: Agonist activity at human MC5 receptor expressed in CHO cells assessed as cAMP accumulation; format: functional, cell-based
[7] = target: T1, Melanocyte-stimulating hormone receptor; assay: Agonist activity at human MC1 receptor expressed in CHO cells assessed as cAMP accumulation at 10 uM relative to alpha-MSH; format: functional, cell-based
Target sequence in this assay (Q01726 whole entry, looked up): as the sequence (Q01726 whole entry) above

Melanocortin receptor 3 [8] = target: T2, Melanocortin receptor 3; assay: Agonist activity at human MC3 receptor expressed in CHO cells assessed as cAMP accumulation at 10 uM relative to alpha-MSH; format: functional, cell-based
Melanocortin receptor 4 [9] = target: T3, Melanocortin receptor 4; assay: Agonist activity at human MC4 receptor expressed in CHO cells assessed as cAMP accumulation at 10 uM relative to alpha-MSH; format: functional, cell-based
Melanocortin receptor 5 [10] = target: T4, Melanocortin receptor 5; assay: Agonist activity at human MC5 receptor expressed in CHO cells assessed as cAMP accumulation at 10 uM relative to alpha-MSH; format: functional, cell-based
[11] = Oral bioavailability in Sprague-Dawley rat at 1 mg/kg and 4 mg/kg; format: ADME, organism-based; conditions: in vivo
[12] = Clearance in Sprague-Dawley rat at 1 mg/kg, iv and 4 mg/kg, po; format: ADME, organism-based; conditions: in vivo
[13] = Volume of distribution in Sprague-Dawley rat at 1 mg/kg, iv and 4 mg/kg, po; format: ADME, organism-based; conditions: in vivo, read-out: Vdss
[14] = Half life in Sprague-Dawley rat at 1 mg/kg, iv and 4 mg/kg, po; format: ADME, organism-based; conditions: in vivo
Melanocortin receptor 4 [15] = target: T3, Melanocortin receptor 4; assay: Agonist activity at human MC4 receptor expressed in CHO cells assessed as cAMP accumulation; format: functional, cell-based
[16] = Oral bioavailability in Beagle dog at 1 mg/kg; format: ADME, organism-based, Canis lupus familiaris; conditions: in vivo
[17] = Clearance in Beagle dog at 1 mg/kg, po; format: ADME, organism-based, Canis lupus familiaris; parameters: dose 1 mg/kg, route oral; conditions: in vivo
Canis familiaris = assay: Volume of distribution in Beagle dog at 1 mg/kg, po; format: ADME, organism-based, Canis lupus familiaris; parameters: dose 1 mg/kg, route oral; conditions: in vivo
[18] = Half life in Beagle dog at 1 mg/kg, po; format: ADME, organism-based, Canis lupus familiaris; parameters: dose 1 mg/kg, route oral; conditions: in vivo
[19] = Oral bioavailability in rhesus monkey at 1 mg/kg; format: ADME, organism-based, Macaca mulatta; conditions: in vivo
[20] = Clearance in rhesus monkey at 1 mg/kg, po; format: ADME, organism-based, Macaca mulatta; parameters: dose 1 mg/kg, route oral; conditions: in vivo
Rhesus monkey = assay: Volume of distribution in rhesus monkey at 1 mg/kg, po; format: ADME, organism-based, Macaca mulatta; parameters: dose 1 mg/kg, route oral; conditions: in vivo
[21] = Half life in rhesus monkey at 1 mg/kg, po; format: ADME, organism-based, Macaca mulatta; parameters: dose 1 mg/kg, route oral; conditions: in vivo
Mus musculus [22] = assay: Antiobesity activity in wild type mouse assessed as reduction in food intake at 20 mg/kg after 4 hrs post dosing relative to control; format: functional; parameters: scale not given: the % may be the effect or the level left
Mus musculus [23] = assay: Antiobesity activity in MC3R/MC4R knockout mouse assessed as reduction in food intake at 20 mg/kg after 4 hrs post dosing relative to control; format: functional, organism-based; parameters: dose 20 mg/kg
Rattus norvegicus [24] = assay: Antiobesity activity in diet-induced obesity rat model assessed as reduction in body weight at 5 mg/kg, po BID for 14 days relative to control; format: functional, organism-based; parameters: dose 5 mg/kg
Rattus norvegicus [25] = assay: Antiobesity activity in diet-induced obesity rat model assessed as reduction in body weight at 10 mg/kg, po BID for 14 days relative to control; format: functional, organism-based; parameters: dose 10 mg/kg
Rattus norvegicus [26] = assay: Antiobesity activity in diet-induced obesity rat model assessed as reduction in body weight at 20 mg/kg, po BID for 14 days relative to control; format: functional, organism-based; parameters: dose 20 mg/kg
[27] = Plasma concentration in rat at 10 mg/kg, iv after 15 mins; format: ADME, organism-based; parameters: dose 10 mg/kg, route intravenous
Mus musculus [28] = assay: Increase in erectile activity in CN-stimulated mouse at 10 mg/kg, iv; format: functional, organism-based; parameters: dose 10 mg/kg
Mus musculus [29] = assay: Antiobesity activity in diet-induced obesity mouse model assessed as reduction in food intake at 20 mg/kg after 4 hrs post dosing relative to control; format: functional, organism-based; parameters: dose 20 mg/kg
[30] = target: Voltage-gated inwardly rectifying potassium channel KCNH2 (Homo sapiens, UniProt Q12809); assay: Inhibition of human ERG
Sequence of Voltage-gated inwardly rectifying potassium channel KCNH2 (Q12809 whole entry): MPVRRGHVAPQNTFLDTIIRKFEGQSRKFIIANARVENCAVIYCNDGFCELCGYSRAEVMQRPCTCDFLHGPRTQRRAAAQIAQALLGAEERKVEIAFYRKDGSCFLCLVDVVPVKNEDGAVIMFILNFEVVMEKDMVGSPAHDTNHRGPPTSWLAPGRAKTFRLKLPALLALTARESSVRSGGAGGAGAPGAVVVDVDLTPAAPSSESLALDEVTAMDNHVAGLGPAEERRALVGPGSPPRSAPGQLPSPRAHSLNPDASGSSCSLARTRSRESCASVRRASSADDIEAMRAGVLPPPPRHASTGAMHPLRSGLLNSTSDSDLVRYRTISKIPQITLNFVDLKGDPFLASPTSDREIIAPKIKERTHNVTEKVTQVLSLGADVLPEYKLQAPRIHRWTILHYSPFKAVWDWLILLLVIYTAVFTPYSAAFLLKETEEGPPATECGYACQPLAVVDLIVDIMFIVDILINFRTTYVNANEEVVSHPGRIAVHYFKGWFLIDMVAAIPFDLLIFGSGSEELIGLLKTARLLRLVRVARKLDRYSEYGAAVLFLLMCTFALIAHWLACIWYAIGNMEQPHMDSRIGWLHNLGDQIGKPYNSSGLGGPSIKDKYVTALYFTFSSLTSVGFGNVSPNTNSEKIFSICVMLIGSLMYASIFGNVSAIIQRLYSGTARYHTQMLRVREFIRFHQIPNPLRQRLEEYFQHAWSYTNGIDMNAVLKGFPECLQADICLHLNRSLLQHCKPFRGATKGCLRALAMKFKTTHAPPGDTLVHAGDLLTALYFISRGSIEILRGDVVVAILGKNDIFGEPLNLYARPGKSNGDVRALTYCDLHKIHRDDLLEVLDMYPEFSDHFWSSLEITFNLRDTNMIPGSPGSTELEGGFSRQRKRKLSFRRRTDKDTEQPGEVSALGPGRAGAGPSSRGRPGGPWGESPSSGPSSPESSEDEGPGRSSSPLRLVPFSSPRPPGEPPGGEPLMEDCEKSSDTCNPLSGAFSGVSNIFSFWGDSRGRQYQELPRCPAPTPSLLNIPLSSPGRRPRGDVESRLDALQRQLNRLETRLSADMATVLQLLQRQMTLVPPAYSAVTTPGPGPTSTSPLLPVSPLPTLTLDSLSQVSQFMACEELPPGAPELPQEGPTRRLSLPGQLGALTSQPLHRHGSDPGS

[31] = Binding affinity to calcium channel
[32] = Binding affinity to sodium channel
Mus musculus [33] = assay: Increase in erectile activity in CN-stimulated mouse at 0.3 mg/kg, iv; format: functional, organism-based; parameters: dose 0.3 mg/kg
[34] = Plasma concentration in rat at 0.3 mg/kg, iv after 15 mins; format: ADME, organism-based; parameters: dose 0.3 mg/kg, route intravenous

SMILES	IC50 [1] [µM]	IC50 (Melanocortin receptor 3 [2]) [µM]	IC50 (Melanocortin receptor 4 [3]) [µM]	IC50 (Melanocortin receptor 5 [4]) [µM]	EC50 [5] [µM]	EC50 (Melanocortin receptor 5 [6]) [µM]	Activity [7] [%]	Activity (Melanocortin receptor 3 [8]) [%]	Activity (Melanocortin receptor 4 [9]) [%]	Activity (Melanocortin receptor 5 [10]) [%]	bioavailability [11] [%]	clearance [12] [mL/min/kg]	Vd [13] [L/kg]	half-life [14] [h]	EC50 (Melanocortin receptor 4 [15]) [µM]	further results
C[C@@H]1CN(C(=O)N[C@H](Cc2ccc(F)cc2)C(=O)N2CCC(C(=O)NC(C)(C)C)(C3CCCCC3)CC2)C[C@H](C)N1	5.1	0.65	0.0049	0.85	–	> 3	30	3.6	59	22	28	35	4.7	2	0.022	bioavailability [16]: 118%; CL/F [17]: 5.4 mL/min/kg; Vdss (Canis familiaris): 1.8 L/kg; half-life [18]: 5.1 h; bioavailability [19]: 20%; CL/F [20]: 5.2 mL/min/kg; Vdss (Rhesus monkey): 1 L/kg; half-life [21]: 5.3 h; Activity (Mus musculus [22]): 37%; Activity (Mus musculus [23]): inactive; Activity (Rattus norvegicus [24]): Active; Activity (Rattus norvegicus [25]): Active; Activity (Rattus norvegicus [26]): Active; concentration at 0.25 h [27]: 4700 nM; Activity (Mus musculus [28]): inactive; Activity (Mus musculus [29]): Active; INH [30]: > 10 µM; Activity [31]: 9.6 µM; Activity [32]: 6.8 µM
C[C@@H]1CN(C(=O)N[C@H](Cc2ccc(F)cc2)C(=O)N2CCC(C(=O)NC(C)(C)C)(C3CCCCC3)CC2)C[C@H](C)N1C	7.8	0.76	0.016	1.4	0.91	–	14	0.6	21	14	–	–	–	–	0.06	–
CC[C@H](NC(C)=O)c1cc(Cl)ccc1C1CCN(C(=O)[C@@H]2CN(C(C)(C)C)C[C@H]2c2ccc(F)cc2F)CC1	–	–	–	–	–	–	–	–	–	–	–	–	–	–	–	Activity (Rattus norvegicus [25]): Active; Activity (Mus musculus [28]): Active; Activity (Mus musculus [33]): Active; concentration at 0.25 h [34]: 47 nM
C[C@H]1CN(C(=O)N[C@H](Cc2ccc(F)cc2)C(=O)N2CCC(C(=O)NC(C)(C)C)(C3CCCCC3)CC2)C[C@H](C)N1	3.3	0.74	0.012	1.4	0.25	1.4	46	2	58	30	–	–	–	–	0.058	–

Continued by falling IC50 [1], values first:

IC50 [1] [µM]	IC50 (Melanocortin receptor 3 [2]) [µM]	IC50 (Melanocortin receptor 4 [3]) [µM]	IC50 (Melanocortin receptor 5 [4]) [µM]	EC50 [5] [µM]	EC50 (Melanocortin receptor 5 [6]) [µM]	Activity [7] [%]	Activity (Melanocortin receptor 3 [8]) [%]	Activity (Melanocortin receptor 4 [9]) [%]	Activity (Melanocortin receptor 5 [10]) [%]	bioavailability [11] [%]	clearance [12] [mL/min/kg]	Vd [13] [L/kg]	half-life [14] [h]	EC50 (Melanocortin receptor 4 [15]) [µM]	SMILES	further results
2.8	0.39	0.0051	1.3	0.4	–	31	0	18	1	18	62	8.2	1.8	–	CC[C@@H]1CN(C(=O)N[C@H](Cc2ccc(F)cc2)C(=O)N2CCC(C(=O)NC(C)(C)C)(C3CCCCC3)CC2)C[C@@H](CC)N1	–
2.1	0.23	0.0047	0.43	0.42	–	24	1.2	41	14	46	36	4.7	1.7	0.013	CC[C@@H]1CN(C(=O)N[C@H](Cc2ccc(F)cc2)C(=O)N2CCC(C(=O)NC(C)(C)C)(C3CCCCC3)CC2)C[C@H](CC)N1	–
2.1	0.97	0.011	1.4	0.26	1	39	2.8	66	31	1.9	43	9.2	4.2	0.018	C[C@@H]1CN(C(=O)N[C@H](Cc2ccc(F)cc2)C(=O)N2CCC(C(=O)NC(C)(C)C)(C3CCCCC3)CC2)C[C@@H](C)N1	–
1.5	0.033	0.00078	0.054	0.28	0.21	24	1.3	15	26	–	–	–	–	–	C[C@@H]1CN(C(=O)N[C@H](Cc2ccc(Cl)cc2)C(=O)N2CCC(C(=O)NC(C)(C)C)(C3CCCCC3)CC2)C[C@H](C)N1	–
